{"source": "paper PMC4122495", "about": "“Small Molecule Deubiquitinase Inhibitors Promote Macrophage Anti-Infective Capacity” (PLoS ONE, 2014)", "tested_on": "L. monocytogenes", "test": "L. monocytogenes intracellular growth assay in RAW264.7 macrophages", "format": "cell-based, Listeria monocytogenes 10403S", "set-up": "decrease in Listeria intracellular viability: concentration or dose not given beside the values", "method": "RAW264.7 cells were cultured at an initial density of 4×10^6 cells per 24-well plate and allowed to adhere overnight. Macrophages were treated with 2.5 or 5 µM of DUB inhibitors dissolved in dimethyl sulfoxide (DMSO) for 0.5 or 1 h or with equivalent volume of DMSO (vehicle control) at 37°C. For dose-response curves, macrophages were incubated with 5, 2.5, 1 and 0.5 µM of compounds 1, 3 and 4 or 2.5, 2, 1 and 0.5 µM of compounds 2 and 9 for 0.5 h or 1 h at 37°C. DUB inhibitors were removed from cell culture prior to infection by changing the medium. Macrophages were infected with L. monocytogenes at a multiplicity of infection (MOI) of 1 for 0.5 h at 37°C. The inoculum was removed by washing infected cells three times with Dulbecco’s phosphate-buffered saline (PBS), and the cells were incubated in medium containing 10 µg/ml of gentamicin to kill extracellular bacteria for the duration of the experiment. At 8 h post-infection, cells were lysed in 1 ml 0.1% Triton X-100, serially diluted and plated on Luria-Bertani (LB) agar to enumerate the number of colony forming units (CFU). CFU were counted using the Acolyte SuperCount (Microbiology International, Frederick, MD) plate reader and software. Results were normalized to DMSO-treated cells.\nSupplementary file pone.0104096.s001.tif: Figure S1 Dose-response curves for selected compounds. RAW264.7 cells were incubated with DMSO (equivalent volume) or the varying concentrations of WP1130-derivatives for 0.5 h (compounds 1, 2, 4 and 9) or 1 h (compound 3). After incubation, the medium was removed, and cells were infected at 37°C for 0.5 h at an MOI of 1 with L. monocytogenes in the absence of additional drugs. Following the 0.5 h infection, cells were washed and gentamycin (10 µg/ml) was added to kill extracellular bacteria. Intracellular bacteria were enumerated at 8 h post-infection. The data represent percent of Listeria intracellular growth compared to DMSO-treated cells from three independent experiments performed in triplicate. Non-linear regression curves were performed using the GraphPad Prism software. (TIF) Click here for additional data file.", "data": [{"smiles": "CCCC(NC(=O)/C(C#N)=C/c1nc(Cl)ccc1Cl)c1ccc(OCCN2CCOCC2)cc1", "note": "(stereo not drawn) [Compound 9]", "values": [{"measurement": "EC50", "setting": "Listeria monocytogenes, RAW264.7 pre-treated with varying concentrations, then infected (MOI 1), intracellular CFU at 8 h post-infection, non-linear regression", "result": 1.92, "unit": "µM"}, {"measurement": "decrease in Listeria intracellular viability", "setting": "RAW264.7 pre-treated at each compound's working condition (Fig. 2B, 5B), 8 h post-infection, vs DMSO", "result": 66.1, "unit": "%"}, {"measurement": "Decrease intracellular listeria viability (%)", "setting": "conditions of Figure 2B and Figure 5B, maximal effective drug concentration used, 8 h post-infection, vs DMSO", "result": 66.1, "unit": "%"}]}]}
